Reference: PMC9025851, “Polyphenolic Compounds from Lespedeza bicolor Protect Neuronal Cells from Oxidative Stress” (Antioxidants, 2022)
Read-outs that look alike come from different tables or passages of the source. One block for each molecule: values may come before it.

Tests used:
neuronal HT22 cells = system: neuronal HT22 cells; design: method as in PMID 33397834; conditions: cited from earlier work; for Neuroprotective effect against glutamate-induced neurotoxicity: HT22 cells
MAO-A = system: MAO-A; design: method as in PMID 27575476, PMID 32087226; conditions: cited from earlier work
MAO-B = system: MAO-B; design: method as in PMID 27575476, PMID 32087226; conditions: cited from earlier work
[1] = DPPH radical-scavenging effect; conditions: 30 min; DPPH• 10^−4 M in MeOH; mean ± SEM, n = 3; read-out: DPPH-Scavenging Effect SC50
Protocol: The 2,2-diphenyl-1-picrylhydrazyl (DPPH^•) radical-scavenging effect of polyphenolic compounds 7–11 was determined as described in [24]. Polyphenolic compounds 7, 8, 9, 10, and 11 were added to DPPH^• solution in MeOH (10^−4 M) at concentrations from 6 to 34 µM. The reacting mixture was kept in the dark for 30 min at room temperature. Then, we measured the absorbance at 517 nm using a Shimadzu UV 1240 spectrophotometer (Shimadzu, Kyoto, Japan). Equation (1) was used to calculate the DPPH^• radical-scavenging effect (%):(1) DPPH^• scavenging effect,%=A0−Ax/A0 where A0 is the absorbance of DPPH^• solution of a blank sample (without polyphenolic compounds); AX is the absorbance of DPPH^• solution in the presence of different concentrations of polyphenolic compounds.
Quercetin was used as a reference compound. All experiments were performed in triplicate. We calculated the half-maximal scavenging concentration (SC50) for polyphenolic compounds by plotting the DPPH^• scavenging effect (%) against the concentrations of polyphenolic compounds. SC50 values are given as the mean value ± SEM.

[2] = Ferric reducing antioxidant power (FRAP) assay; conditions: 4 min, absorbance 595 nm; mean ± SEM, n = 3
Protocol: We performed the FRAP assay as described in [29]. We prepared the FRAP reagent by mixing 2.5 mL of TPTZ (2,4,6-tris(2-pyridyl)-s-triazine) solution (10 mM) in 40 mM HCl and 25 mL of FeCl3 solution (20 mM) in acetate buffer solution (300 mM, pH 3.6). Polyphenolics 7–11 were added to 3 mL of FRAP reagent at concentrations from 6 to 34 µM. The mixture was kept in the dark at room temperature for 4 min. Then, we measured the absorbance at 595 nm using a Shimadzu UV 1240 spectrophotometer. Equation (2) was used to calculate the FRAP values for polyphenolic compounds 7–11:(2) FRAP=CFe/Cx where CFe is the concentration of Fe^2+ (µM) formed in the reaction; CX is the concentration of polyphenolic compounds in the reacting mixture.
The concentration of Fe^2+ (µM) formed in the reaction was determined using the calibration curve obtained for different concentrations of FeSO4·7H2O.

[3] = system: PQ-treated Neuro-2a cells; assay: PQ-induced neurotoxicity, cell viability (MTT); format: cell-based, murine; conditions: PQ 1 mM; for Effect on percentage of living cells after treatment with PQ: compounds 0.01–10 μM, 1 h pre-treatment, MTT after 24 h; for Increase in percentage of living cells after treatment with PQ: MTT
Protocol: (§1) After 24 h of adhesion, Neuro-2a cells (1 × 10^4 cells/well) were treated with polyphenolic compounds at concentrations of 0.01–10 μM for 1 h. Subsequently, 1 mM of PQ, 10 μM rotenone or 80 μM of 6-OHDA (Sigma-Aldrich, St. Louis, MO, USA) were added. We used MTT assay to determine the percentage of living cells (cell viability) after 24 h of incubation. Cells incubated without inductors or with inductors were used as positive and negative control, respectively. The results are presented as percentages of the positive control value.

Cytotoxicity, MTT assay = format: cell-based, murine; conditions: mouse, Neuro-2a neuroblastoma cells, read-out: Cytotoxic activity EC50
Protocol: The murine neuroblastoma cell line Neuro-2a (CCL-131) was purchased from American Type Culture Collection (ATCC®) (Manassas, VA, USA). Cells were cultured in Dulbecco’s Modified Eagle Medium (Biolot, St. Petersburg, Russia). The medium contained 10% fetal bovine serum (Biolot, St. Petersburg, Russia) and 1% penicillin/streptomycin (Biolot, St. Petersburg, Russia). Cells were incubated at 37 °C in a humidified atmosphere containing 5% (v/v) CO2.
Stock solutions of polyphenolic compounds were prepared in DMSO at a concentration of 10 mM. […]
We incubated Neuro-2a cells (1 × 10^4 cells/well) at 37 °C in a CO2 incubator for 24 h until they formed an adherent monolayer. Then, 20 μL of the tested solution was loaded onto the cells and incubated for 24 h. After incubation, the medium containing the polyphenolic test compounds was replaced by 100 μL of fresh medium. Then, we added 10 μL of MTT (3-(4,5-dimethylthiazol-2-yl)-2,5-diphenyltetrazolium bromide) (Sigma-Aldrich, St. Louis, MO, USA) stock solution (5 mg/mL) to each well and incubated the microplate for 4 h. Then, 100 μL of SDS-HCl solution (1 g SDS/10 mL dH2O/17 μL 6 M HCl) was added to each well, followed by incubation for 18 h. We measured the absorbance of the converted dye formazan on a Multiskan FC microplate photometer (Thermo Scientific, Waltham, MA, USA) at a wavelength of 570 nm. We performed all experiments in triplicate and expressed the cytotoxic activity as percent of living cells.

[4] = design: method as in PMID 31004693; conditions: 30 min; mean ± SEM, n = 3; previously published; read-out: DPPH-Scavenging Effect SC50; cited from earlier work
[5] = design: method as in PMID 31004693; conditions: mean ± SEM, n = 3; previously published; cited from earlier work
[6] = system: 6-OHDA-treated Neuro-2a cells; assay: 6-OHDA-induced neurotoxicity, cell viability (MTT); format: cell-based, murine; conditions: 6-OHDA 80 µM, p < 0.05
Protocol: as §1

[7] = system: 6-OHDA-treated Neuro-2a cells; assay: ROS level in 6-OHDA-treated cells (H2DCF-DA); format: cell-based, murine; conditions: 6-OHDA 80 µM; for Effect on ROS levels in 6-OHDA-treated cells: 1 h, H2DCF-DA
Protocol: After 24 h of adhesion, Neuro-2a cells (1 × 10^4 cells/well) were incubated with compounds (0.01–10 µM) for 1 h. Then, we added rotenone (10 μM), 6-OHDA (80 μM), or PQ (1 mM) to each well and incubated cells for 1 h, 1 h, or 3 h, respectively. To evaluate the level of intracellular ROS, we added 20 µL of 2,7-dichlorodihydrofluorescein diacetate solution ([…], H2DCF-DA, Molecular Probes, Eugene, OR, USA) to each well, so that the final concentration was 10 µM, and incubated the microplate at 37 °C for an additional 30 min. Quercetin was used as a reference compound.

[8] = system: PQ-treated Neuro-2a cells; assay: Mitochondrial membrane potential (TMRM) in PQ-treated cells; format: cell-based, murine; conditions: for Increase in mitochondrial membrane potential: compound 10 µM, PQ-treated Neuro-2a, TMRM
Protocol: The cells were incubated for 1 h in a 96-well plate (1 × 10^4 cells/well) with polyphenolic compounds (1 and 10 µM). Then, PQ (500 µM) was added, and the cell suspension was incubated for 1 h. Cells incubated without PQ and compounds were used as positive control, and cells with PQ alone were used as negative control. We added the tetramethylrhodamine methyl (TMRM) (Sigma-Aldrich, St. Louis, MO, USA) solution (500 nM) to each well, and incubated cells for 30 min at 37 °C. After the incubation, we measured the intensity of fluorescence with a PHERAstar FSplate reader (BMG Labtech, Ortenberg, Germany) at λex = 540 nm and λem = 590 nm. We processed the data using MARS Data Analysis v3.01R2 (BMG Labtech, Ortenberg, Germany) and presented results as percentages of the positive control value.

Molecule: 2-geranyl-1-methoxylespeflorin G11
Neuroprotective effect against glutamate-induced neurotoxicity (neuronal HT22 cells): significant neuroprotective effects | Apoptosis in HT22 cells (neuronal HT22 cells; by inhibiting intracellular ROS generation and mitochondrial dysfunction): attenuate

Molecule: 2-geranylbicolosin A
Neuroprotective effect against glutamate-induced neurotoxicity (neuronal HT22 cells): significant neuroprotective effects

Molecule: COc1c(CC=C(C)C)c(O)cc2c1C1Oc3c(ccc(O)c3CC=C(C)C)C1CO2 (centres unmarked) [1-methoxyerythrabyssin II]
Neuroprotective effect against glutamate-induced neurotoxicity (neuronal HT22 cells): significant neuroprotective effects

Molecule: COc1cc(O)cc2c1C1Oc3c(ccc(O)c3CC=C(C)C)C1CO2 (centres unmarked) [1-methoxylespeflorin G11]
Neuroprotective effect against glutamate-induced neurotoxicity (neuronal HT22 cells): significant neuroprotective effects

Molecule: COc1cc2c(cc1O)OC1c3c(OC)cc(O)c(C/C=C(\C)CCC=C(C)C)c3OCC21 (centres unmarked) [8-methoxybicolosin C]
Neuroprotective effect against glutamate-induced neurotoxicity (neuronal HT22 cells): significant neuroprotective effects

Molecule: COc1ccc2c(c1O)OC[C@H]1c3cc4c(cc3O[C@@H]21)OCO4 [(–)-4-hydroxy-3-methoxy-8,9-methylenedioxypterocarpan]
Inhibition of MAO-A (MAO-A): effectively inhibit | Inhibition of MAO-B (MAO-B): effectively inhibit

EC50 [1]: 30.5 ± 2.1 µM
Molecule: O=C1O[C@H]([C@@H](O)CO)C(O)=C1O [Ascorbic acid, reference compound]
FRAP [2]: 3.43 ± 0.33 mol (Fe^2+)/mol (polyphenolic compound X)

Molecule: CC(C)=CCC/C(C)=C/Cc1c(O)c(O)cc2c1O[C@H]1c3ccc(O)cc3OC[C@@H]21 [Compound 1, (6aR,11aR)-6a,11a-dihydrolespedezol A2]
Effect on percentage of living cells after treatment with PQ [3]: did not exhibit any effect | EC50 at 24 h (Cytotoxicity, MTT assay): 72 µM | EC50 [4]: 24.3 ± 3.7 µM | FRAP [5]: 1.78 ± 0.16 mol (Fe^2+)/mol (polyphenolic compound X)

Molecule: CC(C)=CCC[C@@]1(C)C=Cc2c(c(O)cc3c2O[C@H]2c4ccc(O)cc4OC[C@@H]32)O1 [Compound 2, (6aR,11aR,3′S)-6a,11a-dihydrolespedezol A3]
Effect on percentage of living cells after treatment with PQ [3]: did not exhibit any effect | EC50 at 24 h (Cytotoxicity, MTT assay): 75 µM | EC50 [4]: 25 ± 2.2 µM | Increase in percentage of living cells after 6-OHDA treatment versus 6-OHDA-treated cells [6]: 8.7% | Decrease of ROS level compared to 6-OHDA-treated cells [7]: 4.5 times | Effect on ROS levels in 6-OHDA-treated cells [7]: significantly decreased | FRAP [5]: 1.31 ± 0.02 mol (Fe^2+)/mol (polyphenolic compound X)

Molecule: CC(C)=CCC[C@]1(C)C=Cc2c(c(O)cc3c2O[C@H]2c4ccc(O)cc4OC[C@@H]32)O1 [Compound 3, 6aR,11aR,3′R-6a,11a-dihydrolespedezol A3]
Effect on percentage of living cells after treatment with PQ [3]: significantly increased | Increase in percentage of living cells after treatment with PQ ([3]; compound 10 μM): 8% | EC50 at 24 h (Cytotoxicity, MTT assay): 44 µM | EC50 [4]: 23.7 ± 2.1 µM | Increase in percentage of living cells after 6-OHDA treatment versus 6-OHDA-treated cells [6]: 12.9% | Decrease of ROS level compared to 6-OHDA-treated cells [7]: 4.5 times | Effect on ROS levels in 6-OHDA-treated cells [7]: significantly decreased | FRAP [5]: 1.60 ± 0.08 mol (Fe^2+)/mol (polyphenolic compound X) | Increase in mitochondrial membrane potential [8]: 16%

Molecule: CC(C)=CCC/C(C)=C/Cc1c(O)c(O)cc(C(=O)C(=O)c2ccc(O)cc2O)c1O [Compound 5, bicoloketone]
Effect on percentage of living cells after treatment with PQ [3]: significantly increased | Increase in percentage of living cells after treatment with PQ ([3]; compound 1 and 10 μM): 8–10% | EC50 at 24 h (Cytotoxicity, MTT assay): 100 µM | EC50 [4]: 26.1 ± 3 µM | FRAP [5]: 0.86 ± 0.04 mol (Fe^2+)/mol (polyphenolic compound X) | Increase in mitochondrial membrane potential [8]: 23%

EC50 [1]: 25.7 ± 3.4 µM
Molecule: CC(C)=CCC/C(C)=C/Cc1c(O)c(O)cc2c1oc1c3ccc(O)cc3oc(=O)c21 [Compound 7, lespedezol A6]
EC50 at 24 h (Cytotoxicity, MTT assay): > 100 µM | FRAP [2]: 1.83 ± 0.16 mol (Fe^2+)/mol (polyphenolic compound X)

EC50 [1]: 26.7 ± 3.8 µM
Molecule: CC(C)=CCC/C(C)=C/Cc1c(O)c(C(=O)c2c(-c3ccc(O)cc3O)oc3c(C/C=C(\C)CCC=C(C)C)c(O)c(O)cc23)cc2c1OC1c3cc(CC=C(C)C)c(O)cc3OCC21 (centres unmarked) [Compound 8, lespebicolin B]
Effect on percentage of living cells after treatment with PQ [3]: significantly increased | Increase in percentage of living cells after treatment with PQ ([3]; compound 1 and 10 μM): 8–10% | EC50 at 24 h (Cytotoxicity, MTT assay): > 100 µM | FRAP [2]: 1.95 ± 0.19 mol (Fe^2+)/mol (polyphenolic compound X)

EC50 [1]: 19.4 ± 2.2 µM
Molecule: CC(C)=CCC/C(C)=C/Cc1c(O)c(O)cc(C(=O)C(=O)c2cc(CC=C(C)C)c(O)cc2O)c1O [Compound 11, 5′-isoprenylbicoloketone]
EC50 at 24 h (Cytotoxicity, MTT assay): 87 µM | FRAP [2]: 1.45 ± 0.08 mol (Fe^2+)/mol (polyphenolic compound X)

Molecule: C[n+]1ccc(-c2cc[n+](C)cc2)cc1 [PQ, paraquat, reference compound]
Decrease in TMRM fluorescence ([8]; 1 h exposure of Neuro-2a cells with PQ alone): 23%

EC50 [1]: 8.9 ± 0.2 µM
Molecule: O=c1c(O)c(-c2ccc(O)c(O)c2)oc2cc(O)cc(O)c12 [Quercetin, reference compound]
FRAP [2]: 5.11 ± 0.31 mol (Fe^2+)/mol (polyphenolic compound X)

Molecule: COc1c(CC=C(C)C)c(O)cc2c1[C@@H]1Oc3c(cc(C)c(O)c3CC=C(C)C)[C@@H]1CO2 [bicolosin A]
Neuroprotective effect against glutamate-induced neurotoxicity (neuronal HT22 cells): significant neuroprotective effects

Molecule: medicarpin
Inhibition of MAO-A (MAO-A): did not effectively inhibit | Inhibition of MAO-B (MAO-B): selectively inhibited
